Measured values as given in paper PMC11237694, “Novel pentafluorosulfanyl-containing triclocarban analogs selectively kill Gram-positive bacteria” (Microbiology Spectrum, 2024).
≈ marks a conversion by molar mass, not a printed value.

Columns and labels:
Assay in all cases: Planktonic susceptibility (MIC/MBC), 96-well broth microdilution
[1] = test system: Klebsiella pneumoniae ATCC; format: cell-based; settings: K. pneumonia; for MIC: planktonic, overnight 37°C in MHB
Experimental: (§1) All bacterial strains subjected to testing had been stored at −70°C prior to the experiment. The experiment commenced by streaking small amounts of the frozen bacterial samples onto Muller-Hinton agar (MHA) culture medium (BD Bacto, Oxoid, Basingstoke, UK Cat# X296B) and allowing for overnight incubation. Bacteria were re-cultured on MHA plates as required to confirm colony morphology and lack of contamination. Strains tested were P. aeruginosa ATCC 27853, E. coli ATCC 25922, Staphylococcus aureus ATCC 25923, MRSA ATCC 33591, S. epidermidis ATCC 12228, Klebsiella pneumoniae ATCC, P. mirabilis ATCC 35659, and 10 clinical isolates of MRSA from Foothills Hospital, Calgary, Canada. To prepare for susceptibility testing, a protocol modified from Lemire et al was used ([28]). MHB was swab-inoculated from MHA colonies and shake-incubated until turbid. Dilution of the broth with 0.9% saline was performed as necessary to match a 1.0 McFarland standard.
(§2) MIC and MBC assessments were conducted on all bacterial strains using 96-well microtiter plates. To prepare the wells for bacteria, serial dilutions of the antibacterial agents were carried out along the rows of two microtiter plates. The antibacterials were 2-fold diluted with Mueller-Hinton broth (MHB) in each column, reaching a volume of 75 µL. The 1.0 McFarland standard was diluted 15-fold in MHB, and 75 µL of inoculum was added to the wells treated with antibacterials, resulting in a total volume of 150 µL. The microtiter plates were covered and then shake-incubated overnight at 150 rpm and 37°C. MIC was determined based on visible bacterial growth. In cases of antibacterial opacity or ambiguous results, streaking of well cultures on MHA, overnight incubation, and subsequent comparison with controls were performed. MBC was determined by transferring 3 µL of culture from all MIC microtiter plate wells to 147 µL of Mueller-Hinton broth in fresh plates. These plates were shake-incubated overnight at 150 rpm and 37°C, and bacterial growth was visually inspected.

P. mirabilis ATCC 35659 = format: cell-based; settings: Proteus mirabilis; for MBC: ATCC35659; for MIC: ATCC35659, planktonic, overnight 37°C in MHB
Experimental: as §1, §2

MRSA ATCC 33591 = format: cell-based, methicillin-resistant S. aureus; settings: Staphylococcus aureus, MRSA reference strain; for MIC: planktonic, overnight 37°C in MHB
Experimental: as §1
as §2, with “In cases of antibacterial opacity or ambiguous results, streaking of well cultures on MHA, overnight incubation, and subsequent comparison with controls were performed.” left out

[2] = test system: Staphylococcus aureus ATCC 25923; format: cell-based; settings: Staphylococcus aureus, ATCC25923, S. aureus; for MIC: planktonic, overnight 37°C in MHB
Experimental: as §1, §2

Row | SMILES | MIC [1] [mM] | MIC (P. mirabilis ATCC 35659) [mM] | MIC (MRSA ATCC 33591) [mM] | MIC [2] [mM] | MBC [1] [mM] | MBC (P. mirabilis ATCC 35659) [mM] | MBC (MRSA ATCC 33591) [mM] | MBC [2] [mM]
1 | O=C(Nc1ccc(S(F)(F)(F)(F)F)cc1)Nc1cccc(S(F)(F)(F)(F)F)c1 [EBP-55, 1-(3-(pentafluoro-λ^6-sulfanyl)phenyl)-3-(4-(pentafluoro-λ^6-sulfanyl)phenyl)urea] | > 5 | > 5 | 0.0048 (≈ 2.23 µg/mL) | 0.019 (≈ 8.82 µg/mL) | > 5 | > 5 | 0.15 (≈ 69.7 µg/mL) | 78 (≈ 36200 µg/mL)
2 | O=C(Nc1cc(S(F)(F)(F)(F)F)ccc1Cl)Nc1cc(S(F)(F)(F)(F)F)ccc1Cl [EBP-36, 1,3-bis(2-chloro-5-pentafluoro-λ^6-sulfanyl)urea] | > 5 | > 5 | 0.61 (≈ 325 µg/mL) | 0.076 (≈ 40.5 µg/mL) | > 5 | > 5 | 9.8 (≈ 5230 µg/mL) | 78 (≈ 41600 µg/mL)
3 | O=C(Nc1cccc(S(F)(F)(F)(F)F)c1)Nc1cccc(S(F)(F)(F)(F)F)c1 [EBP-53, 1,3-bis(3-(Pentafluoro-λ^6-sulfanyl)phenyl) urea] | > 5 | > 5 | 1.2 (≈ 557 µg/mL) | 1.2 (≈ 557 µg/mL) | > 5 | > 5 |  | 
4 | O=C(Nc1ccc(Cl)c(C(F)(F)F)c1)Nc1ccc2nnsc2c1 [A] | > 5 | > 5 |  |  | > 5 | > 5 |  | 
5 | O=C(Nc1ccc(Cl)cc1)Nc1cccc(S(F)(F)(F)(F)F)c1Cl [EBP-58, 1-(2-Chloro-3-(pentafluoro-λ^6-sulfanyl)phenyl)-3-(4-chlorophenyl)urea] | > 5 | > 5 | 20 (≈ 8140 µg/mL) |  | > 5 | > 5 |  | 
6 | O=C(Nc1ccc(Cl)c(S(F)(F)(F)(F)F)c1)Nc1ccc2nnsc2c1 [EBP-25, 3-(1,2,3-benzothiadiazol-6-yl)-1-(4-chloro-3-pentafluoro-λ^6-sulfanyl)urea] | > 5 | > 5 |  | 9.8 (≈ 4220 µg/mL) | > 5 | > 5 |  | 78 (≈ 33600 µg/mL)

The next lines start with results.

Row | MIC [1] [mM] | MIC (P. mirabilis ATCC 35659) [mM] | MIC (MRSA ATCC 33591) [mM] | MIC [2] [mM] | SMILES | MBC [1] [mM] | MBC (P. mirabilis ATCC 35659) [mM] | MBC (MRSA ATCC 33591) [mM] | MBC [2] [mM]
7 | > 5 | > 5 |  |  | O=C(Nc1ccc(S(F)(F)(F)(F)F)cc1)Nc1ccc2nnsc2c1 [EPB-21, 3-(1,2,3-benzothiadiazol-6-yl)-1-(4-pentafluoro-λ^6-sulfanyl)urea] | > 5 | > 5 |  | 
8 | > 5 | > 5 | 0.61 (≈ 242 µg/mL) | 0.61 (≈ 242 µg/mL) | O=C(Nc1cccc(S(F)(F)(F)(F)F)c1)Nc1ccc2nnsc2c1 [EPB-22, 3-(1,2,3-benzothiadiazol-6-yl)-1-(3-pentafluoro-λ^6-sulfanyl)urea] | > 5 | > 5 | 4.9 (≈ 1940 µg/mL) | 20 (≈ 7930 µg/mL)
